Laboratory results reported in patent US11524004B2, “Analogs of proxisome proliferator activated receptor (PPAR) agonists and methods of using the same” (The University of Toledo, priority 2013, dated 2022).

How the values were obtained:
[1] = system: Human bone marrow-derived mesenchymal stem cells (MSCs); experiment: MSC osteogenesis assay: Alizarin Red S osteoblast mineralization, with concomitant assessment of fat cell formation; type: cell-based; conditions: for osteogenic formation from MSCs: MSCs in osteogenic medium, test agent at 1, 2, 4, 10 or 20 μM every 2nd day for 21 days, Alizarin Red S; for profile of fat (AD) versus osteogenic (OS) effects during dose progression (bone should predominate): dose progression 1-20 μM
Method: Human bone marrow-derived mesenchymal stem cells (MSCs) were taken through 2-3 passages and distributed across a 24 well plate at a density of 1×10^5 cells/cm^2. The plates were cultured in α-MEM with 20% FBS for 1 day at 37° C. On day 2 the medium was switched to osteogenic media (Stem X-Vivo, R&D System, Minneapolis, Minn.) containing 10% FBS plus 50 μg/ml ascorbic acid and 3 mM β-glycerol-phosphate. MSCs were cultured in the osteogenic medium without (vehicle negative control) or with test agents at 1, 2, 4, 10 or 20 μM supplied every 2nd day for 21 days. GW 0427 (standard PPAR ligand as positive control) was delivered by the same regimen on every plate to account for experimental variation.
Plates were washed twice with ice-cold PBS and incubated in 50 mM Tris-HCl (pH 7.6). The cells were treated with 2% Alizarin Red S (pH 4.2) for 10 min and then washed with distilled water. Stained cells were visualized by phase-contrast microscopy to determine cell morphology and to verify the presence of mineralized nodules (red images). The intensities of the images were assessed by Image-Pro Analyzer (Media Cybernetics, Inc., Bethesda, Md.).

Structure (SMILES)	osteogenic formation from MSCs [1]	profile of fat (AD) versus osteogenic (OS) effects during dose progression (bone should predominate) ([1]; MSC assay)	other results
Cc1nc(-c2ccccc2)sc1CCOc1ccc(C=CC(=O)O)cc1 [BK-3-51, 4-[[4-Methyl-2-phenylthiazol-5-yl]methyl]methoxycinnamic Acid]	–	–	melting point: 209 to 211 °C
Cc1nc(-c2ccc(C(F)(F)F)cc2)sc1CNc1ccc(C=CC(=O)O)cc1 [BK-4-03, 4-[N-[5-Methylene-4-methyl-2-[4-(trifluoromethyl)phenyl]thiazole]]aminocinnamic Acid]	Increased osteogenic formation	–	–
Cc1nc(-c2ccc(C(F)(F)F)cc2)sc1CSc1ccc(C=CC(=O)O)cc1 [BK-4-04, 4-Thio-[5-methylene-4-methyl-2-[4-(trifluoromethyl)phenyl]thiazole]cinnamic Acid]	Increased osteogenic formation	–	–
Cc1nc(-c2ccc(C(F)(F)F)cc2)sc1CN(C)c1ccc(C=CC(=O)O)cc1 [BK-4-15, 4-[N-Methyl-N-[5-methylene-4-methyl-2-[4-(trifluoromethyl)phenyl]thiazole]]aminocinnamic Acid]	Increased osteogenic formation	most preferred profile	–
Cc1nc(-c2ccc(C(F)(F)F)c(F)c2)sc1CNc1ccc(C=CC(=O)O)cc1 [BK-4-30, 4-[N-[5-methylene-4-methyl-2-[3-fluoro-4-(trifluoromethyl)phenyl]thiazole]]aminocinnamic Acid]	–	not as suitable	–
Cc1cc(SCc2sc(-c3ccc(C(F)(F)F)c(F)c3)nc2C)ccc1OCC(=O)O [GW0742, reference compound]	–	initially demonstrates such a preference	OS activity as dose range continued to 10 and 20 uM ([1]; MSC assay, 10 and 20 uM, estimated, averaged effects): decreased
Cc1nc(-c2ccc(C(F)(F)F)c(F)c2)sc1COc1ccc(C=CC(=O)O)cc1 [JM-4-57, 4-[Oxo-[5-methylene-4-methyl-2-[3-fluoro-4-(trifluromethyl)phenyl]thiazole]]cinnamic Acid]	Increased osteogenic formation	–	concentration at which osteogenic activity peaks ([1]; MSCs, 21 days, doses 1-20 μM): 10 µM
